Data reported in patent publication US20140328898A1, “Nano-Liposomal Formulations and Methods of Use” (CHILDREN'S NATIONAL MEDICAL CENTER, priority 2013, published 2014).

Experiment: Size-dependent transdermal penetration of PEGylated and anionic liposomes through the stratum corneum of porcine ear tissue (Example 2), DiI fluorescence intensity profiles
Format: in vitro ADME, Yorkshire piglets
Details: free dye applied to the skin in liposome-free buffer (control)
From the text: For PEGylated liposomes, dimyristoylphosphatidylcholine (DMPC), cholesterol, and dipalmitoylphosphatidylethanolamine-PEG 2000 (PEG2000-PE) (Avanti Polar Lipids Inc., Alabaster, Ala.) were combined in chloroform (Mallinckrodt Baker Inc., Phillipsburg, N.J.) at a molar ratio of 70:25:5. For anionic liposomes, DMPC, cholesterol (both from Avanti), and anionic surfactant dihexadecyl phosphate (DCP) (Sigma Aldrich, St. Louis, Mo.) were mixed in chloroform (Mallinckrodt Baker Inc.) at a molar ratio of 50:40:10. The lipid mixtures were prepared in glass scintillation vials then stored in a vacuum desiccator for at least 24 hours for complete solvent removal. The desiccated lipid mixtures were re-dissolved in anhydrous ethanol (Sigma Aldrich) for a total lipid concentration of 40 mM. To assist in fluorescent imaging, a lipophilic membrane dye, 1,1′-dioctadecyl-3,3,3′,3′-tetramethylindocarbocyanine perchlorate (DiI-C18; DiI) (Life Technologies, Carlsbad, Calif.) was included into the lipid mixtures (1 wt %). […]
The microfluidic-generated liposomes contained lipophilic DiI in their bilayers and hydrophilic SF in their cores to enable fluorescence imaging of tissue penetration depth. […]

O=C([O-])c1ccccc1-c1c2ccc(=O)cc-2oc2cc([O-])ccc12.[Na+].[Na+] [free SF dye, sodium fluorescein salt]
SF dye penetration beyond the SC (in words): no penetration beyond the SC was observed
